These are literature values, as cited in patent US20080286202A1, “Method of Diagnosing Prodromal Forms of Diseases Associated With Amyloid Deposition” (priority 2004, published 2008).

Molecules are shown by their SMILES.

The conditions of this data set: in vivo.

For `COc1ccccc1N1CCN(CCN(c2ccccn2)[11C](=O)C2CCCCC2)CC1` [[^11C]WAY-100635], the “f1 (free level in plasma)” value is 0.06.
